Source: patent publication US9149038B2, “4-amino-6-(heterocyclic)picolinates and 6-amino-2-(heterocyclic)pyrimidine-4-carboxylates and their use as herbicides” (Dow AgroSciences LLC, priority 2013, dated 2015)
Read-outs that look alike come from different tables or passages of the source.

Tests used:
[1] = test system: Key Broadleaf Weed and Crop Species; assay: Post-Emergent Test II: postemergent herbicidal activity, visual rating after 14 d (Table 7); assay type: in vivo; settings: post-emergence, 336 h; for pest or weed control at 35 g/ha: 35 g ai/ha; for pest or weed control at 70 g/ha: 70 g ai/ha; for pest or weed control at 140 g/ha: 140 g ai/ha
Procedure, shortened: (§1)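 Scoring is visual, 0-100, at 14 d after application, comparing treated with untreated plants. Application: overhead track spray at 187 L/ha onto seedlings at 1-2 true leaves, in surfactant/crop-oil carrier.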

[2] = test system: Key Grass and Sedge Weeds as well as Grass Crops; assay: Post-Emergent Test II: postemergent herbicidal activity, visual rating after 14 d (Table 8); assay type: in vivo; settings: post-emergence, 336 h; for pest or weed control at 35 g/ha: 35 g ai/ha; for pest or weed control at 70 g/ha: 70 g ai/ha; for pest or weed control at 140 g/ha: 140 g ai/ha
Procedure, shortened: as §1

[3] = lambsquarters (Chenopodium album), read-out: Visual Growth Reduction (%) 14 Days After Application CHEAL
[4] = oilseed rape, canola (Brassica napus), read-out: Visual Growth Reduction (%) 14 Days After Application BRSNN
[5] = redroot pigweed (Amaranthus retroflexus), read-out: Visual Growth Reduction (%) 14 Days After Application AMARE
[6] = sunflower (Helianthus annuus), read-out: Visual Growth Reduction (%) 14 Days After Application HELAN
[7] = velvetleaf (Abutilon theophrasti), read-out: Visual Growth Reduction (%) 14 Days After Application ABUTH
[8] = wild poinsettia (Euphorbia heterophylla), read-out: Visual Growth Reduction (%) 14 Days After Application EPHHL
[9] = barnyardgrass (Echinochloa crus-galli), read-out: Visual Growth Reduction (%) 14 Days After Application ECHCG
[10] = giant foxtail (Setaria faberi), read-out: Visual Growth Reduction (%) 14 Days After Application SETFA
[11] = maize, corn (Zea mays), read-out: Visual Growth Reduction (%) 14 Days After Application ZEAMX
[12] = rice (Oryza sativa), read-out: Visual Growth Reduction (%) 14 Days After Application ORYSA
[13] = wheat, spring (Triticum aestivum), read-out: Visual Growth Reduction (%) 14 Days After Application TRZAS
[14] = yellow nutsedge (Cyperus esculentus), read-out: Visual Growth Reduction (%) 14 Days After Application CYPES

COC(=O)c1nc(-c2ccc3c(c2OC)OC(F)(F)O3)cc(N)c1Cl [Compound 47]
pest or weed control at 35 g/ha [1, 3]: 30 to 44%
pest or weed control at 70 g/ha [1, 3]: 30 to 44%
pest or weed control at 140 g/ha [1, 3]: 45 to 59%
pest or weed control at 35 g/ha [1, 4]: 60 to 74%
pest or weed control at 70 g/ha [1, 4]: 60 to 74%
pest or weed control at 140 g/ha [1, 4]: 60 to 74%
pest or weed control at 35 g/ha [1, 5]: 0 to 29%
pest or weed control at 70 g/ha [1, 5]: 75 to 84%
pest or weed control at 140 g/ha [1, 5]: 85 to 94%
pest or weed control at 35 g/ha [1, 6]: 30 to 44%
pest or weed control at 70 g/ha [1, 6]: 30 to 44%
pest or weed control at 140 g/ha [1, 6]: 45 to 59%
pest or weed control at 35 g/ha [1, 7]: 0 to 29%
pest or weed control at 70 g/ha [1, 7]: 30 to 44%
pest or weed control at 140 g/ha [1, 7]: 60 to 74%
pest or weed control at 35 g/ha [1, 8]: 0 to 29%
pest or weed control at 70 g/ha [1, 8]: 0 to 29%
pest or weed control at 140 g/ha [1, 8]: 0 to 29%
pest or weed control at 35 g/ha [2, 9]: 0 to 29%
pest or weed control at 70 g/ha [2, 9]: 0 to 29%
pest or weed control at 140 g/ha [2, 9]: 0 to 29%
pest or weed control at 35 g/ha [2, 10]: 0 to 29%
pest or weed control at 70 g/ha [2, 10]: 0 to 29%
pest or weed control at 140 g/ha [2, 10]: 0 to 29%
pest or weed control at 35 g/ha [2, 11]: 0 to 29%
pest or weed control at 70 g/ha [2, 11]: 0 to 29%
pest or weed control at 140 g/ha [2, 11]: 0 to 29%
pest or weed control at 35 g/ha [2, 12]: 0 to 29%
pest or weed control at 70 g/ha [2, 12]: 0 to 29%
pest or weed control at 140 g/ha [2, 12]: 0 to 29%
pest or weed control at 35 g/ha [2, 13]: 0 to 29%
pest or weed control at 70 g/ha [2, 13]: 0 to 29%
pest or weed control at 140 g/ha [2, 13]: 0 to 29%
pest or weed control at 35 g/ha [2, 14]: 0 to 29%
pest or weed control at 70 g/ha [2, 14]: 0 to 29%
pest or weed control at 140 g/ha [2, 14]: 0 to 29%
